What follows are molecules tested on soybean event Gm_CSM63717 (assay: Controlled environment PPO herbicide tolerance trial, event Gm_CSM63717). Details: 1× rate, sprayed at V3 stage, greenhouse, rated 11 days after herbicide applications.
Assay type: in vivo, Glycine max
Method: (§1) An efficacy trial was conducted in the controlled environment to evaluate tolerance of event Gm_CSM63717 to various PPO herbicides. The experiment included the lead event (Gm_CSM63717) and a wild-type control in the same transformation germplasm, and consisted of nine individual PPO herbicide treatments, all at 1× rates. These included butafenacil, flumioxazin, fomesafen, lactofen, pyroflufen, saflufenacil, Voraxor (trifludimoxazin and salflufenacil), sulfentrazone, cyclopropylmethyl (2-{2-chloro-4-fluoro-5-[3-methyl-2,6-dioxo-4-(trifluoromethyl)-3,6-dihydropyrimidin-1(2H)-yl]phenoxy}phenoxy)acetate, and an untreated control. The herbicide formulations contained 1% (v/v) Crop Oil Concentrate (COC, Prime Oil, Winfield Solutions, LLC, P. O. Box 64589, St. Paul, MN 55164-0589) for sulfentrazone, fomesafen, lactofen, or 1% (v/v) methylated seed oil (Destiny® HC, Winfield Solutions, LLC, P. O. Box 64589, St. Paul, MN 55164-0589) for flumioxazin, saflufenacil, Voraxor, pyroflufen, butafenacil, and cyclopropylmethyl (2-{2-chloro-4-fluoro-5-[3-methyl-2,6-dioxo-4-(trifluoromethyl)-3,6-dihydropyrimidin-1(2H)-yl]phenoxy}phenoxy)acetate. There were 10 replications per treatment. The plants were grown under standard greenhouse conditions, and were sprayed with each herbicide at V3 stage, and were visually rated for herbicide injury 11 days after herbicide applications.

Molecule	Injury (%) Gm_CSM63717 [%]
Cn1c(C(F)(F)F)cc(=O)n(-c2cc(Oc3ccccc3OCC(=O)OCC3CC3)c(Cl)cc2F)c1=O [cyclopropylmethyl (2-{2-chloro-4-fluoro-5-[3-methyl-2,6-dioxo-4-(trifluoromethyl)-3,6-dihydropyrimidin-1(2H)-yl]phenoxy}phenoxy)acetate]	0

The molecules below were run on Cas12a gRNA target sites on Glycine max A3335 chromosome 13 (assay: gRNA/LbCas12a target site editing in stably transformed soybean plants (AmpSeq)). Details: plants with target site edits / plants examined x 100.
Assay type: in vivo
Excerpt: CRISPR Cas12a-based cleavage of DNA sequences requires the use of gRNAs that can target specific sequences (target sites) comprising a Cas12a-recognizable protospacer adjacent motif (PAM) sequence so as to facilitate Cas12a enzymatic activity and DNA cleavage. The 10 cM window was scanned for the presence of the LbCas12a-preferred PAM (TTTV, where “V” is A, C, or G) that were unique in the genome (i.e., that only occur once in the genome). This set was additionally filtered so as to identify gRNA target sites that were more than 2 kb from a coding region, more than 1 kb from a small RNA hotspot, and comprised 700 nucleotides (nt) of unique sequence on either side. A suite of genomic target sites was identified from this analysis and 12 were chosen for testing based on additional factors like GC content, and absence of potential off-targets. PAM sites are italicized and shown in bold. The corresponding 23 bp gRNA spacer (SP) sequences are also identified and represented by SEQ ID NOs:223-234.
Three Agrobacterium T-DNA vectors were designed to evaluate gRNA and LbCas12a nuclease mediated cleavage at the selected target sites. Each T-DNA vector contained 3 cassettes between the left and right borders on the T-DNA: an aadA selection marker cassette, an LbCas12a Cas12a cassette, and a multiplexed gRNA cassette. The aadA and LbCas12a cassettes were common across the three vectors. The aadA expression cassette contained the aadA gene (also known as Tn7 adenylyltransferase (AAD(3″)) from E. coli under the control of a constitutive promoter, and targeted the aadA protein to the chloroplast for selection of transgenic events resistant to spectinomycin and streptomycin. The LbCas12a cassette comprised a plant codon optimized LbCas12a (SEQ ID NO:236) flanked by the same nuclear localization signal sequence (NLS) at the 5′ and 3′ ends (SEQ ID NO:235) and a 3′UTR sequence (SEQ ID NO:237) derived from a Medicago truncatula gene. The gene cassette comprising NLS-Cas12aLbCas12a-NLS sequence was fused 3′ to an ATGGCG sequence and operably linked to a chimeric promoter sequence (SEQ ID NO:238) comprising an enhancer region from the Banana Streak Virus (Strain Acuminata Vietnam) and promoter with the 5′ UTR region from the Dahlia mosaic virus.
The guide RNA cassette in vector pG947 comprised a Glycine max Pol III promoter operably linked to a transcribable sequence comprising in order a DR sequence (SEQ ID NO:239), spacer SP10 (SEQ ID NO:232), DR (SEQ ID NO: 239), spacer SP11 (SEQ ID NO:233), DR (SEQ ID NO: 239), spacer SP2 (SEQ ID NO:224), DR (SEQ ID NO: 239), spacer SP12 (SEQ ID NO:234), DR and a poly (T)7 terminator. The guide RNA cassette in vector pG949 comprised a Glycine max Pol III promoter operably linked to a transcribable sequence comprising in order a DR sequence (SEQ ID NO:239), spacer SP9 (SEQ ID NO:231), DR (SEQ ID NO: 239), spacer SP7 (SEQ ID NO:229), DR (SEQ ID NO: 239), spacer SP1 (SEQ ID NO:223), DR (SEQ ID NO: 239), spacer SP5 (SEQ ID NO:227), DR (SEQ ID NO: 239) and a poly (T)7 terminator. The guide RNA cassette in vector pG950 comprised a Glycine max Pal III promoter operably linked to a transcribable sequence comprising in order a DR sequence (SEQ II) NO:239), spacer SP3 (SEQ ID NO:225), DR (SEQ ID NO: 239), spacer SP6 (SEQ ID NO:228), DR (SEQ ID NO: 239), spacer SP4 (SEQ ID NO:226), DR (SEQ ID NO: 239), spacer P8 (SEQ ID NO:230), DR and a poly (T)7 terminator.
The three plant transformation vectors were introduced into soybean seed-derived embryo explants through Agrobacterium-mediated transformation using methods known in the art. Transformed plants were selected on spectinomycin. Genomic DNA was extracted from leaf samples harvested from regenerated plantlets. Each targeted region was amplified by PCR. […]

Molecule	Target Editing Rate (%)
GmTS1: LbCas12a gRNA for target site GmTS1 (SEQ ID NO:211), spacer SP1 (SEQ ID NO:223) (guide CAAACATCACATGGCCGGATAAG; expressed or natural sequence)	2.4
GmTS2: LbCas12a gRNA for target site GmTS2 (SEQ ID NO:212), spacer SP2 (SEQ ID NO:224) (guide CTTCCTGAGGAAATTTGGTTTCA; expressed or natural sequence)	7.3
GmTS3: LbCas12a gRNA for target site GmTS3 (SEQ ID NO:213), spacer SP3 (SEQ ID NO:225) (guide GCAAGATCCGCTGCCTGCTTGAG; expressed or natural sequence)	8.3
GmTS4: LbCas12a gRNA for target site GmTS4 (SEQ ID NO:214), spacer SP4 (SEQ ID NO:226) (guide CCTTGATTTGGATTAACCCGCCA; expressed or natural sequence)	8.3
GmTS5: LbCas12a gRNA for target site GmTS5 (SEQ ID NO:215), spacer SP5 (SEQ ID NO:227) (guide CTAAATCGCATAGCTTGTGTGTT; expressed or natural sequence)	14.3
GmTS6: LbCas12a gRNA for target site GmTS6 (SEQ ID NO:216), spacer SP6 (SEQ ID NO:228) (guide CATGCTGTCATCATCTGTTCACT; expressed or natural sequence)	17.9
GmTS7: LbCas12a gRNA for target site GmTS7 (SEQ ID NO:217), spacer SP7 (SEQ ID NO:229) (guide CCTATATCTGTTTCAGTGATTGC; expressed or natural sequence)	23.8
GmTS9: LbCas12a gRNA for target site GmTS9 (SEQ ID NO:219), spacer SP9 (SEQ ID NO:231) (guide CGGAGTAGCAGAGAGGAGATTCG; expressed or natural sequence)	36.9
GmTS10: LbCas12a gRNA for target site GmTS10 (SEQ ID NO:220), spacer SP10 (SEQ ID NO:232) (guide ATCAAAGCTAAAGCATAAGCATC; expressed or natural sequence)	45.1
GmTS11: LbCas12a gRNA for target site GmTS11 (SEQ ID NO:221), spacer SP11 (SEQ ID NO:233) (guide GCTCGCTATATATATGTGTCACA; expressed or natural sequence)	48.8
GmTS12: LbCas12a gRNA for target site GmTS12 (SEQ ID NO:222), spacer SP12 (SEQ ID NO:234) (guide GACATATATGCTATATCATTCTC; expressed or natural sequence)	72

The molecules below were run on wild-type control in the same transformation germplasm (assay: Controlled environment PPO herbicide tolerance trial, wild-type control). Details: 1× rate, sprayed at V3 stage, greenhouse, rated 11 days after herbicide applications.
Assay type: in vivo, Glycine max
Method: as §1

Molecule	Injury (%) WT Control [%]
Cn1c(C(F)(F)F)cc(=O)n(-c2cc(Oc3ccccc3OCC(=O)OCC3CC3)c(Cl)cc2F)c1=O [cyclopropylmethyl (2-{2-chloro-4-fluoro-5-[3-methyl-2,6-dioxo-4-(trifluoromethyl)-3,6-dihydropyrimidin-1(2H)-yl]phenoxy}phenoxy)acetate]	89

Reference: patent publication US20250197952A1, “TRANSGENIC SOYBEAN EVENT GM_CSM63717 AND COMPOSITIONS AND METHODS FOR DETECTION AND USES THEREOF” (Monsanto Technology LLC, priority 2023, published 2025)
